Laboratory results reported in patent publication US11828750B2, “Material for screening for compound acting on ION channel and use thereof” (PUBLIC UNIVERSITY CORPORATION NAGOYA CITY UNIVERSITY, priority 2016, dated 2023).

Experiments:
hTREK-1 = target: T1, hTREK-1 (Homo sapiens, UniProt O95069); experiment: Cell death assay (MTT method) in TREK-1 test cells (hTREK-1#Kir 2.1#mutated Nav HEK293 cells); assay type: cell-based; details: 37° C.
T1 construct: expressed in transfected cells; host or cells: HEK293 cells stably expressing Kir 2.1 and Nav 1.5 IFM/QQQ; hTREK-1 in pcDNA3.1(+)
T1 sequence (O95069 1-422 isoform O95069-3): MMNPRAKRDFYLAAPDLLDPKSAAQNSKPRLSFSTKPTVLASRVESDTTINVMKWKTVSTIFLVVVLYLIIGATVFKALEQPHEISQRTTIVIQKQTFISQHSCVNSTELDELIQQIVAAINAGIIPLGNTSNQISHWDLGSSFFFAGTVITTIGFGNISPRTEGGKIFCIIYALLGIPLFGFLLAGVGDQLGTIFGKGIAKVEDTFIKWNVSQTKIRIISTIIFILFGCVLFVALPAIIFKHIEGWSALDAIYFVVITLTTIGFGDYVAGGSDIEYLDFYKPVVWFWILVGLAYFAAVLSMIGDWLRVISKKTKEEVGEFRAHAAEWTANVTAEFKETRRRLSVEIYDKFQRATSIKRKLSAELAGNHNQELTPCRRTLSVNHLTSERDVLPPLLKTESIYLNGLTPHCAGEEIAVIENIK
Description: (Cell Culture and Gene Insertion) Human-derived embryonic kidney cells (HEK293 cells) were purchased from the Health Sciences Research Resource Bank (HSRRB). 10% fetal bovine serum (FBS, Gibco Corp.) was added thereto followed by culturing at 37° C. in 5% CO2 in Dulbecco's Modified Eagle Medium (D-MEM, Wako Pure Chemical Industries, Ltd.) containing 100 U/ml penicillin (Wako Pure Chemical Industries, Ltd.) and 100 μg/ml streptomycin (Meiji Seika Kaisha, Ltd.). pcDNA3.1/Kir 2.1, obtained by subcloning human-derived Kir 2.1 (NM #000891) in pcDNA3.1(+) (Invitrogen Corp.), was inserted using Lipofectamine 2000 (Invitrogen Corp.) followed by culturing in medium obtained by adding 0.2 mg/ml Zeocin (Invitrogen Corp.) to the above-mentioned D-MEM medium and then cloning Zeocin resistant cells to prepare Kir 2.1 constantly expressing cells (HEK#Kir). In addition, the deactivation mutant Nav 1.5 IFM/QQQ was inserted into the Kir 2.1 constantly expressing cells using the same method (HEK#Kir#mutated Nav).
Proceeding as above, hTREK-1#Kir 2.1 #mutated Nay cells (referred to herebelow as TREK-1 test cells) were prepared by subcloning hTREK-1 (GenBank Accession Number: NM #001017424), a type of human-derived K2P channel, in pcDNA3.1(+) and inserting it in the previously prepared Kir 2.1 #mutated Nav cells. […]

hSK2 = target: T2, hSK2 (Homo sapiens, UniProt Q9H2S1); experiment: Cell death assay in SK2 test cells (Kir 2.1+IFM/QQQ+SK2 cells); assay type: cell-based
T2 construct: expressed in transfected cells; host or cells: HEK293 Kir 2.1 + mutated Nav cells, transient expression via baculovirus vector
Source text: (§1) hSK2 and hSK4, which are each one type of human-derived Ca ion-activated ion channel, were respectively subcloned in a baculovirus vector, which is a viral vector, and were inserted into the Kir 2.1 #mutated Nav cells prepared in Second Embodiment to prepare hSK2 transiently expressing Kir 2.1+IFM/QQQ+SK2 cells (referred to herebelow as SK2 test cells) and hSK4 transiently expressing Kir 2.1+IFM/QQQ+SK4 cells (referred to herebelow as SK4 test cells). Sf-900 III SFM (Thermo Fisher Scientific) was used for the culture medium for baculovirus vector production, and Dulbecco's Modified Eagle Medium (D-MEM) culture medium supplemented with 10% fetal bovine serum (FBS) was used as the culture medium for the test cells.

hTASK-1 = experiment: Cell death assay in TASK-1 test cells (hTASK-1 transiently expressing Kir 2.1#mutated Nav cells); assay type: cell-based, human
Description: With the TREK-1 test cells, the culture medium was replaced with measurement buffer (137 mM NaCl, 5.9 mM KCl, 2.2 mM CaCl2, 1.2 mM MgCl2, 14 mM glucose, 10 mM HEPES (pH 7.4 with NaOH), this also applies in the following) and BaCl2 was added to provide 200 μM Ba ion, a Kir 2.1 inhibitor. This was followed by incubation for approximately 12 hours under conditions of 37° C., atmospheric pressure, and 5% CO2 and monitoring of cell death. […] The measurement of cell death was carried out using the MTT method with reference to a paper by the present inventors (Yamazaki, D., et al., Am J Physiol Cell Physiol 300, C75-86, 2011).
hTASK-1 (the Δi20 mutant was used due to poor transfer to the cell membrane by the wild type, resulting in the problems of a small current and measurement difficulties. This mutant is reported to readily transfer to the membrane. Renigunta et al., Traffic 7:168-181, 2006) and hTASK-3 (GenBank Accession Number: NM #001282534), which are types of human-derived K2P channels, were subcloned in a baculovirus vector, a viral vector, and were inserted into the Kir 2.1 #mutated Nav cells prepared in Second Embodiment to prepare hTASK-1 transiently expressing TASK-1#Kir 2.1 #mutated Nav cells and hTASK-3 transiently expressing hTASK-3#Kir 2.1 #mutated Nav cells (referred to herebelow as TASK-1 test cells and TASK-3 test cells), respectively, which transiently expressed hTASK-1 and hTASK-3. Sf-900 III SFM (Thermo Fisher Scientific) was used for the culture medium for baculovirus vector production, and Dulbecco's Modified Eagle Medium (D-MEM) culture medium supplemented with 10% fetal bovine serum (FBS) was used as the culture medium for the test cells.
For TASK-3 this was the same as the literature value of 35 nM (Coburn et al., Chem Med Chem., 7(1), 123-33, 2012).

TASK-1 = TASK-1 (Homo sapiens, UniProt O14649); details: Zou et al. 2010; read-out: reported IC50 for TASK-1; cited from earlier work
Chain of TASK-1 (O14649 whole entry, species assumed): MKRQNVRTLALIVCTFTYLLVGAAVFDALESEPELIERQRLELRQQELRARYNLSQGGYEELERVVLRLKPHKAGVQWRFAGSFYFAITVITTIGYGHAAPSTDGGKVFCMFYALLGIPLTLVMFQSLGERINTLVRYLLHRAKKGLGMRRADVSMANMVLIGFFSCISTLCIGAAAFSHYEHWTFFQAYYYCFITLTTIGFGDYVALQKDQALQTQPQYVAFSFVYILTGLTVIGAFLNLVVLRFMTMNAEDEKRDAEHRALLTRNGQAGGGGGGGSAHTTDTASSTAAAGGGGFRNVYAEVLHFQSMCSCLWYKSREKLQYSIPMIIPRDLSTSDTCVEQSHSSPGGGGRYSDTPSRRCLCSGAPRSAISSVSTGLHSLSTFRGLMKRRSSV

hSK4 = target: T3, hSK4 (Homo sapiens, UniProt O15554); experiment: Cell death assay in SK4 test cells (Kir 2.1+IFM/QQQ+SK4 cells); assay type: cell-based; details: in the presence of 100 nM Ca ion
T3 construct: expressed in transfected cells; host or cells: HEK293 Kir 2.1 + mutated Nav cells, transient expression via baculovirus vector
Source text: as §1

hTASK-3 = target: T4, hTASK-3 (Homo sapiens, UniProt Q9NPC2); experiment: Cell death assay in TASK-3 test cells (hTASK-3 transiently expressing Kir 2.1#mutated Nav cells); assay type: cell-based; details: 200 μM Ba ion
T4 construct: expressed in transfected cells; host or cells: HEK293 Kir 2.1 + mutated Nav cells, transient expression via baculovirus vector
T4 sequence (Q9NPC2 whole entry): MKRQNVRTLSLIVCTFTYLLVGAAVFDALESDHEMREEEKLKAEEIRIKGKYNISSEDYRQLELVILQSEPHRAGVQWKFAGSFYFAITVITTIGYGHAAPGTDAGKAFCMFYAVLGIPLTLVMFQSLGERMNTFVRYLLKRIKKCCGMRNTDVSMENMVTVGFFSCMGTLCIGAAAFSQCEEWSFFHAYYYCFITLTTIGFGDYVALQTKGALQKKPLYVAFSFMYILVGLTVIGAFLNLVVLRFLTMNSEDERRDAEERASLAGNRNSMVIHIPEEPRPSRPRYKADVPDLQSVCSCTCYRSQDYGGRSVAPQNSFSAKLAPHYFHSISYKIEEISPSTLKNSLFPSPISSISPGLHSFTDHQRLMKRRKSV
Source text: Sf-900 III SFM (Thermo Fisher Scientific) was used for the culture medium for baculovirus vector production, and Dulbecco's Modified Eagle Medium (D-MEM) culture medium supplemented with 10% fetal bovine serum (FBS) was used as the culture medium for the test cells.

Question: Which “cell death on supply of TREK-1 inhibitor” value (hTREK-1; in the presence of 200 μM Ba ion, approximately 12 hours, MTT method) does the source give for Nc1ncnc2c1nc(Br)n2[C@@H]1O[C@@H]2COP(=O)(O)O[C@H]2[C@H]1O [8-Br-cAMP] here?
Answer: Its value is “Cell death was observed”.

Question: With c1cc2cc(c1)C[n+]1ccc(c3ccccc31)NCc1ccc(cc1)CNc1cc[n+](c3ccccc13)C2 [UCL1684] as the compound, how does the “effect of inhibitor on NS309-mediated inhibition of cell death” value (hSK2; added together with NS309, 100 nM Ca ion) read?
Answer: The value was “the NS309-mediated inhibition of cell death was extinguished”.

Question: Which results are given for ML365?
Answer: induction of cell death by inhibitor (hTASK-1; in the presence of 200 μM Ba ion): cell death was observed in a concentration-dependent regime; concentration above which a sharp increase in the induction of cell death occurred (hTASK-1; in the presence of Ba ion): > 11.5 nM; IC50 (TASK-1): 12 nM

Question: With O=C1Nc2c(ccc(Cl)c2Cl)C1=NO [NS309, 3-oxime-6,7-dichloro-1H-indole-2,3-dione] as the compound, how does the “cell death of SK2 test cells on addition of activator” value (hSK2; in the presence of 100 nM Ca ion) read?
Answer: The value was “cell death of the SK2 test cells was inhibited”.

Question: Which “cell death of SK4 test cells on addition of activator” value (hSK4) does the source give for CCn1c(=O)[nH]c2cc(Cl)c(Cl)cc21 [DCEBIO, 5,6-dichloro-1-ethyl-1,3-dihydro-2H-benzimidazole-2-one] here?
Answer: Its value is “cell death of the SK4 test cells was inhibited”.

Question: What does the source list for [Ba+2].[Cl-].[Cl-] [Ba ion, BaCl2]?
Answer: cell death with Ba ion alone (hTREK-1; 200 μM Ba ion, TREK-1 test cells): cell death was not produced; cell death with Ba ion alone (hTASK-1; 200 μM Ba ion): cell death was not produced; cell death with Ba ion alone (hTASK-3): cell death was not produced
